# Measurements: the OPERA property sets (Mansouri et al. 2018)
structure (smiles),measurement,value
CNC(=O)N(C)S(=O)(=O)c1cccnc1,logP,0.42
CC(C)NC(=O)NS(=O)(=O)c1ccccc1,logP,1.34
CC(C)(C)NC(=O)NS(=O)(=O)c1ccccc1,logP,1.95
CNC(=O)NS(=O)(=O)Cc1ccccc1,logP,0.54
CN(C)C(=O)NS(=O)(=O)Cc1ccccc1,logP,0.54
CNC(=O)N(C)S(=O)(=O)Cc1ccccc1,logP,1.18
NC(=O)NS(=O)(=O)c1ccccc1,logP,0.28
CN(C)C(=O)NS(=O)(=O)c1ccccc1,logP,0.28
CCCNC(=O)NS(=O)(=O)c1ccccc1,logP,1.44
NC(=O)NS(=O)(=O)c1cccnc1,logP,-0.65
CNC(=O)NS(=O)(=O)c1ccccc1,logP,0.44
CCNC(=O)NS(=O)(=O)c1ccccc1,logP,0.9
CNC(=O)NS(=O)(=O)c1cccnc1,logP,-0.45
CCN(CC)C(=O)NS(=O)(=O)c1ccccc1,logP,0.99
